The record followed here is patent US9089565B2, “Compositions and methods for causing neurite outgrowth” (MEDICAL RESEARCH COUNCIL, priority 2009, dated 2015).

The test system of experiment [1] is NgR1. Briefly: Phosphorylation of endogenous NgR1 (upper band, immunoblotting) in RA-treated SH-SY5Y cells. It counts as cell-based, human. The note with it: incubated with BDNF in the presence of kinase inhibitor, 24 hours. The procedure: FIG. 1. BDNF promotes neurite outgrowth of RA-treated SH-SY5Y, and induces phosphorylation of NgR1. (A) SH-SY5Y cells were incubated with indicated reagents. Cell images were taken with phase contrast microscopy. (B) Number of cells extending neurite-like structures of more than 40 μm and total cell number were counted from images taken in (A). More than 300 cells were examined in each sample. The proportion of cells extending neurite-like structures of more than 40 μm was indicated as a percentage of total cell number. An average of three experiments is shown. Error bars indicate S. E. between experiments. Data were analysed with student's t test. (C) Whole cell extracts were prepared from RA-treated SH-SY5Y cells after incubation with or without BDNF for 24 hours, and were analysed by SDS-PAGE. Immunoblotting was performed with the indicated antibodies. (D) Whole cell extract prepared from cells treated with both RA and BDNF was incubated with the indicated reagents for 1 hour at 37° C. Immunoblotting was performed with anti-NgR1 antibody. (E) RA-treated SH-SY5Y cells were incubated with BDNF in the presence or absence of one of the following: PKC inhibitor—500 nM Gö6983 or Gö6976; PKA inhibitor—2 μM KT5720 or a PKA inhibitor peptide 14-22; or either 500 nM or 1 μM of a casein kinase inhibitor, for 24 hours. Whole cell extracts prepared from these cells were analysed by SDS-PAGE. Immunoblotting was performed with anti-NgR1 antibody.
SH-SY5Y cells were cultured in Ham's F12 medium with 10% foetal bovine serum at 37° C. in 5% CO2 and 95% air. Passage numbers between 15 and 21 were used in experiments described in this paper. Further passages induce spontaneous differentiation and cells tend to extend neurites without BDNF (data not shown). For RA treatment, the cells are seeded (20,000 cells/well) on collagen IV coated 4 well chamber slides. After 24 hours culture, medium was changed to Ham's F12 medium containing 10 μM RA and 10% foetal bovine serum. Medium was changed to fresh medium on day 3 and cells were used for experiments after 5 days culture. Encinas et al. (18) reported that RA-treated SH-SY5Y cells initiate apoptosis after withdrawal of serum only when the cells are cultured at low density. The cell density used in this paper was higher than that in the paper by Encinas et al. (18) and cell death due to depletion of serum or BDNF was not significant. In this paper, the SH-SY5Y cells treated with RA for 5 days are called RA-treated SH-SY5Y. For BDNF treatment, the RA-treated SH-SY5Y cells were washed with serum-free Ham's F12 medium and incubated with 25 ng/ml BDNF in serum-free Ham's F12 medium for 24 hours. As a control (RA alone), the RA-treated SH-SY5Y cells were incubated with serum-free Ham's F12 alone for 24 hours.
Cells were scraped off from dishes and washed with PBS twice, and then resuspended in PBS containing 0.1% Triton X100 and phosphatase inhibitor cocktail (Roche) and EDTA-free protease inhibitor cocktail (Roche). After incubation for 15 min on ice, samples were centrifuged at 14,000×g for 20 min at 4° C. The supernatants containing 30 μg of proteins were analysed by SDS-PAGE and blotted to PVDF membrane. The PVDF membrane was incubated in blocking buffer (5% skimmed milk, 0.4% Triton X-100 in PBS) for 1 hour, first antibody diluted in the blocking buffer and appropriate secondary antibody labelled with horse radish peroxidase. Bound antibodies were visualised with ECL or ECL Plus kit (GE healthcare).

Experiment [2] concerns the target T1, NgR1 (Homo sapiens, UniProt Q9BZR6, S281D).
T1 construct: The cDNAs of NgR1 (NM 023004, Nt. 184-1543); expressed in transfected cells; host or cells: COS7
T1 sequence (Q9BZR6 27-447 S281D): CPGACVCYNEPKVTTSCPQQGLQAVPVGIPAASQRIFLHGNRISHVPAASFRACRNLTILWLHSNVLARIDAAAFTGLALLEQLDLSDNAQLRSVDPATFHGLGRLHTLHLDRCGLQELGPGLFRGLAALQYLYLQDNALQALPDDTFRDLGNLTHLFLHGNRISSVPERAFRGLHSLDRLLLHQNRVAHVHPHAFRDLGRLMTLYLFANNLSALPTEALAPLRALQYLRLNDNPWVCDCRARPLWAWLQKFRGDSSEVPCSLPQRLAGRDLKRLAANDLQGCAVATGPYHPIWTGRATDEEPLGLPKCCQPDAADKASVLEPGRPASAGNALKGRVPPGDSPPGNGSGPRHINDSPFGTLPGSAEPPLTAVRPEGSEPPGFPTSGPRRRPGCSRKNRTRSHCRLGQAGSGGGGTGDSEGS
In words: Binding of OMgp to COS7 cells over-expressing NgR1. The note with it: 281S/D mutant NgR1. How it is done: (§1) FIG. 3. CK2 phosphorylates NgR1, and inhibits binding of the myelin-associated proteins to NgR1. (A) Myc-tagged wild type, 281S/A or 281S/D mutant NgR1 were over-expressed in COS7 cells. The over-expressed cells were incubated with either the combination of ATP and CK2, or NEP1-40 for 30 min at 37° C. After washing with PBS, cells were incubated with Hisx6-tagged Nogo-GFP for 3 hours at 4° C. The cells were fixed and immunofluorescence was performed with anti-Myc and anti-GFP antibodies. (B) COS7 cells over-expressing Myc-tagged wild type NgR1 were treated as described in (A). Proteins were extracted and the Myc-tagged NgR1 was immunoprecipitated with anti-Myc antibody. Co-precipitated Hisx6-tagged Nogo-GFP was detected by anti-GFP antibody. […] The biotinylated proteins were fractionated and analysed by SDS-PAGE. Biotinylated NgR1-Myc was detected with anti-Myc. antibody. […] Myc-tagged proteins were immunoprecipitated and analysed with SDS-PAGE. […]
(§2) After treatment with or without CK2, COS7 cells over-expressing wild type or mutant NgR were incubated with Hisx6 tagged Nogo-GFP (10 μg/ml), HA-MAG (50 μg/ml) or Hisx6 tagged OMgp (10 μg/ml) in PBS for 3 hours at 4° C. […] Biotinylated proteins were precipitated with streptavidin beads and were analysed by SDS-PAGE. Each sample fractionated from 5×10^6 cells was analysed by SDS-PAGE.

In experiment [3] the target is T1, NgR1. Briefly: Binding of MAG to COS7 cells over-expressing NgR1. The note with it: 281S/D mutant NgR1. The procedure: as §1, §2

* marks the point of attachment. Myristoyl = CCCCCCCCCCCCCC(=O)*

For the molecule `COc1ccc2c(c1)c(C1=C(c3c[nH]c4ccccc34)C(=O)NC1=O)cn2CCCN(C)C` [Gö6983], the “level of the upper band of NgR1” value in experiment [1] is “Neither PKC inhibitors Gö6983 and Gö6976, nor PKA inhibitors KT 5720 and a PKA inhibitor peptide, show effects”. Still for that read-out and setting: with `CCCCCCOC(=O)[C@]1(O)C[C@@H]2O[C@@]1(C)n1c3ccccc3c3c4c(c5c6ccccc6n2c5c31)C(=O)NC4` [KT 5720] the entry was “Neither PKC inhibitors Gö6983 and Gö6976, nor PKA inhibitors KT 5720 and a PKA inhibitor peptide, show effects”; with `Cn1c2ccccc2c2c3c(c4c5ccccc5n(CCC#N)c4c21)CNC3=O` [Gö6976], “Neither PKC inhibitors Gö6983 and Gö6976, nor PKA inhibitors KT 5720 and a PKA inhibitor peptide, show effects”. For the molecule “PKA inhibitor peptide: myristoylated PKA inhibitor peptide 14-22 amide, purchased from Merck (Myristoyl-SGRTGRRNA-NH2; SMILES CCCCCCCCCCCCCC(=O)N[C@@H](CO)C(=O)NCC(=O)N[C@@H](CCCNC(=N)N)C(=O)N[C@H](C(=O)NCC(=O)N[C@@H](CCCNC(=N)N)C(=O)N[C@@H](CCCNC(=N)N)C(=O)N[C@@H](CC(N)=O)C(=O)N[C@@H](C)C(N)=O)[C@@H](C)O; UniProt P61925 14-22, looked up, fragment)”, the “level of the upper band of NgR1” value in experiment [1] was “Neither PKC inhibitors Gö6983 and Gö6976, nor PKA inhibitors KT 5720 and a PKA inhibitor peptide, show effects”. The same measure, in the same setting: with `Brc1c(Br)c(Br)c2[nH]nnc2c1Br` [CK2 inhibitor, 4,5,6,7-Tetrabromo-2-azabenzimidazole] the entry was “decreased the upper band”.

B1: OMgp: oligodendrocyte myelin glycoprotein, His-tagged, purchased from R&D (protein, UniProt P23515 25-417, looked up)
Oligodendrocyte-myelin …: ICPLQCICTERHRHVDCSGRNLSTLPSGLQENIIHLNLSYNHFTDLHNQLTQYTNLRTLDISNNRLESLPAHLPRSLWNMSAANNNIKLLDKSDTAYQWNLKYLDVSKNMLEKVVLIKNTLRSLEVLNLSSNKLWTVPTNMPSKLHIVDLSNNSLTQILPGTLINLTNLTHLYLHNNKFTFIPDQSFDQLFQLQEITLYNNRWSCDHKQNITYLLKWMMETKAHVIGTPCSTQISSLKEHNMYPTPSGFTSSLFTVSGMQTVDTINSLSVVTQPKVTKIPKQYRTKETTFGATLSKDTTFTSTDKAFVPYPEDTSTETINSHEAAAATLTIHLQDGMVTNTSLTSSTKSSPTPMTLSITSGMPNNFSEMPQQSTTLNLWREETTTNVKTPLPS
modifications: His tag
notes: oligodendrocyte myelin glycoprotein, His-tagged, purchased from R&D
As for B1, the “binding of ligand to cells” value in experiment [2] is reported as “Neither OMgp nor MAG bound”.

B2: MAG: human myelin-associated glycoprotein, HA-tagged, purified from COS7 conditioned medium (protein)
chain: GHWGAWMPSSISAFEGTCVSIPCRFDFPDELRPAVVHGVWYFNSPYPKNYPPVVFKSRTQVVHESFQGRSRLLGDLGLRNCTLLLSNVSPELGGKYYFRGDLGGYNQYTFSEHSVLDIVNTPNIVVPPEVVAGTEVEVSCMVPDNCPELRPELSWLGHEGLGEPAVLGRLREDEGTWVQVSLLHFVPTREANGHRLGCQASFPNTTLQFEGYASMDVKYPPVIVEMNSSVEAIEGSHVSLLCGADSNPPPLLTWMRDGTVLREAVAESLLLELEEVTPAEDGVYACLAENAYGQDNRTVGLSVMYAPWKPTVNGTMVAVEGETVSILCSTQSNPDPILTIFKEKQILSTVIYESELQLELPAVSPEDDGEYWCVAENQYGQRATAFNLSVEFAPVLLLESHCAAARDTVQCLCVVKSNPEPSVAFELPSRNVTVNESEREFVYSERSGLVLTSILTLRGQAQAPPRVICTARNLYGAKSLELPFQG
As for B2, the “binding of ligand to cells” value in experiment [3] was “Neither OMgp nor MAG bound”.
